# Assay results from patent US20240173440A1, “HIGH PURITY COPPER RADIOPHARMACEUTICAL COMPOSITIONS AND DIAGNOSTIC AND THERAPEUTIC USES THEREOF” (Nuclidium AG, priority 2022, published 2024).
# Columns and labels:
# [1] = Lipophilicity, log D by shake-flask method (1-octanol/PBS pH 7.4); type: physicochemical; settings: pH 7.4, shake-flask, Table 17, mean ± SD, read-out: log D(O/PBS pH 7.4)
# Outline: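 Radiotracer shaken 30 min in pre-saturated 1-octanol/PBS pH 7.4 (1:1), then centrifuged for phase separation. Radioactivity in each phase measured by gamma counting; log D reported as the average log of organic/PBS activity ratio.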
# HEK-SST2 xenografts = assay: PET/CT imaging in HEK-SST2 xenografted mice; type: in vivo; settings: 0-60 min and 240 min
# Description: Tumor xenografted mice were injected intravenously into the tail vein with the tested radiotracer. […] Mice were anesthetized with 1.5% isoflurane and dynamic PET scans were acquired during 1 hour upon injection of the radiotracer. The mice were euthanized by CO2 at 4 hours p.i., the bladder was mechanically emptied, and static PET scans were acquired for 30 min. PET images were acquired using the R-CUBE PET scanner system (MOLECUBES, Gent, Belgium) and they were decay corrected and reconstructed with the VivoQuant software version 4.0. The CT was imaged supine, headfirst, using the NanoSPECT/CT™ scanner (Bioscan Inc.). Topograms and helical CT scans of the whole mouse were first acquired using the following parameters: X-ray tube current: 177 μA, X-ray tube voltage 45 kVp, 90 seconds and 180 frames per rotation, pitch 1. CT images were reconstructed using CTReco (version r1.146), with a standard filtered back projection algorithm (exact cone beam) and post-filtered (RamLak, 100% frequency cut-off), resulting in a pixel size of 0.2 mm. Co-registered PET/CT images were visualized using maximum intensity projection (MIP) with InVivoScope (version 1.43, Bioscan Inc.). The results are presented in the Examples that follow.
# SST2 [2] = target: T1, SST2 (Homo sapiens (Human), UniProt P30874); assay: Saturation binding on HEK-SST2 cell membranes; settings: 37° C.
# Description: Cell Membrane Preparation: HEK-SST2 cells were grown to confluence, mechanically disaggregated, washed with PBS (pH 7.4) and re-suspended in 20 mM of homogenization Tris buffer (pH 7.5) containing 1.3 mM EDTA, 0.25 M sucrose, 0.7 mM bacitracin, 5 μM soybean trypsin inhibitor, and 0.7 mM PMSF. The cells were homogenized using Ultra-Turrax, and the homogenized suspension was centrifuged at 500×g for 10 min at 4° C. The supernatant was collected in centrifuge tubes (Beckman Coulter Inc., Brea, CA, USA). This procedure was then repeated 5 times. The collected supernatant was centrifuged in an ultra-centrifuge (Beckman) at 4° C. for 55 min at 49,000×g. Then, the pellet was re-suspended in 10 mM ice-cold HEPES buffer (pH 7.5), aliquoted, and stored at −80° C. The protein concentration of those membrane suspensions was determined by the Bradford method, BSA as the standard.
# Saturation Experiment: The association profiles of [^61Cu]Cu-NODAGA-LM3 was studied at different concentrations, ranging from 0.075 to 10 nM, in HEK-SST2 cell membranes at 37° C. Each assay tube contained 170 μL of binding buffer (20 mM HEPES, pH 7.4, containing 4 mM μgCl2, 0.2% BSA, 20 μg/L bacitracin, 20 μg/L PMSF and 200,000 KIU/L aprotinin). […] The dissociation constant (KD) and maximal binding capacity (Bmax) values were calculated using GraphPad Software Inc., Prism 7, San Diego, CA, USA (FIG. 37)
# in vivo = settings: iv, 20 umol, total radioactivity
# Description: The tumors were allowed to grow for 1-3 weeks before commencement of the experiments.
# The mice were randomly distributed in groups and euthanized at 1 and at 4 hours post-injection. The organs of interest were collected, rinsed, blotted, weighed and counted in a gamma counter. The results are expressed as percentage of injected activity per gram (% IA/g), representing the mean±standard deviation of n=4-8 mice per group and they were obtained by extrapolation from counts of an aliquot taken from the injected solution as standard.
# The mice were randomly distributed in groups, injected with the radiotracer under investigation and euthanized at 1 and at 4 hours post-injection of the radiotracers under investigation. The organs of interest were collected, rinsed, blotted, weighed and counted in a gamma counter. The results are expressed as percentage of injected activity per gram (% IA/g), representing the mean±standard deviation of all mice per group and they were obtained by extrapolation from counts of an aliquot taken from the injected solution as standard.
# The mice were randomly distributed in groups and euthanized at 4 hours post-injection. The organs of interest were collected, rinsed, blotted, weighed, and their respective radioactivity was counted in a gamma counter.
# SST2 [3] = target: T1, SST2; assay: Competitive binding assay (IC50) on HEK-SST2 cell membranes with 125I-Tyr-somatostatin-14; settings: 1 hour at 37° C., radioligand [^125I]-Tyr-somatostatin-14 0.05 nM, mean ± SD
# Description: Quantification of the free and bound radioligand was performed in a gamma-counter. The data were analyzed by GraphPad Prism 9 Software and the IC50 values were determined using the “log(inhibitor) vs response” equation based on the specific binding=total−non-specific binding.
# Table 18. IC50 values were determined by competitive assays. […] The results are expressed as means standard deviation (SD) from a minimum of two separate experiments, each in triplicates.
# T1 sequence (P30874 whole entry): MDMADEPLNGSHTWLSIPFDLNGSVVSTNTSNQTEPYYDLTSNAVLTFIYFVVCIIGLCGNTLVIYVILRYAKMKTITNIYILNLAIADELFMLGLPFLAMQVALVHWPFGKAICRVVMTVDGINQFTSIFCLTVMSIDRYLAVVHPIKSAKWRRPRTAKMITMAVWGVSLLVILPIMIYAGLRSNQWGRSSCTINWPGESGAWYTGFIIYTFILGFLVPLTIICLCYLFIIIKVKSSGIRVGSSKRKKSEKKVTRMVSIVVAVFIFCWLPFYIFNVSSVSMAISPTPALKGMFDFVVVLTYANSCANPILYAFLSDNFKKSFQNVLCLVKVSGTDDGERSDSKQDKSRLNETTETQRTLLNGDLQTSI
logD [1],distribution pattern on PET/CT (HEK-SST2 xenografts),Kd (SST2 [2]) [µM],"tissue uptake at 4 h (in vivo; athymic nude Foxn1+Foxn1+, mouse, Biodistribution Adrenal) [%ID/g]","tissue uptake at 4 h (in vivo; athymic nude Foxn1+Foxn1+, mouse, Biodistribution Blood) [%ID/g]","tissue uptake at 4 h (in vivo; athymic nude Foxn1+Foxn1+, mouse, Biodistribution Heart) [%ID/g]","tissue uptake at 4 h (in vivo; athymic nude Foxn1+Foxn1+, mouse, Biodistribution Intestine) [%ID/g]","tissue uptake at 4 h (in vivo; athymic nude Foxn1+Foxn1+, mouse, Biodistribution Liver) [%ID/g]","tissue uptake at 4 h (in vivo; athymic nude Foxn1+Foxn1+, mouse, Biodistribution Lung) [%ID/g]","tissue uptake at 4 h (in vivo; athymic nude Foxn1+Foxn1+, mouse, Biodistribution Pancreas) [%ID/g]","tissue uptake at 4 h (in vivo; athymic nude Foxn1+Foxn1+, mouse, Biodistribution Spleen) [%ID/g]","tissue uptake at 4 h (in vivo; athymic nude Foxn1+Foxn1+, mouse, Biodistribution Stomach) [%ID/g]","tissue uptake at 4 h (in vivo; athymic nude Foxn1, mouse, Biodistribution Bone) [%ID/g]","tissue uptake at 4 h (in vivo; athymic nude Foxn1, mouse, Biodistribution Kidneys) [%ID/g]","tissue uptake at 4 h (in vivo; athymic nude Foxn1, mouse, Biodistribution Muscle) [%ID/g]","tissue uptake at 4 h (in vivo; athymic nude Foxn1, mouse, Biodistribution Pituitary) [%ID/g]","tissue uptake at 4 h (in vivo; athymic nude Foxn1, mouse, Biodistribution SSTR2-tumor) [%ID/g]",IC50 (SST2 [3]) [µM],Structure (SMILES)
-2.42 ± 0.04,same distribution pattern,0.00141 to 0.00292,0.6 ± 0.15,0.11 ± 0.02,0.13 ± 0.02,0.43 ± 0.08,0.44 ± 0.06,0.32 ± 0.05,0.43 ± 0.12,0.14 ± 0.01,0.68 ± 0.15,0.31 ± 0.07,4.59 ± 0.41,0.06 ± 0.02,2.96 ± 0.62,20.4 ± 4.2,–,"C[C@@H](O)[C@@H]1NC(=O)[C@H](CCCCN)NC(=O)[C@@H](Cc2ccc(NC(N)=O)cc2)NC(=O)[C@H](Cc2ccc(O)cc2)NC(=O)[C@H](NC(=O)[C@H](Cc2ccc(Cl)cc2)NC(=O)CCC(C(=O)O)N2CCN(CC(=O)O)CCN(CC(=O)O)CC2)CSSC[C@@H](C(=O)N[C@H](Cc2ccc(O)cc2)C(N)=O)NC1=O (stereo partly drawn) [[^61Cu]Cu-NODAGA-LM3, metal not drawn]"
–,–,–,–,–,–,–,–,–,–,–,–,–,–,–,–,–,0.0178 ± 0.002,CC(O)C1NC(=O)C(CCCCN)NC(=O)C(Cc2ccc(NC(N)=O)cc2)NC(=O)C(Cc2ccc(O)cc2)NC(=O)C(NC(=O)C(Cc2ccc(Cl)cc2)NC(=O)CCC(C(=O)O)N2CCN(CC(=O)O)CCN(CC(=O)O)CC2)CSSCC(C(=O)NC(Cc2ccc(O)cc2)C(N)=O)NC1=O (stereo not drawn) [NODAGA-LM3]
